Inhibition data for 12 molecules are collected here from patent publication US20120121540A1 (priority 2007, published 2012).

Structures are written as SMILES.

The nature of the test: HCV replicon assay (luciferase reporter, ET cell line). It is filed as cell-based. To be noted: Hepatitis C virus, HCV replicon luciferase activity in ET cells. Put shortly: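 EC50 and, via WST-1 cytotoxicity, TC50 were fitted with a Hill-coefficient equation to % inhibition across 10 two-fold dilutions. Compounds at 0.1 nM-[…] with 0.5% DMSO were applied 24 h post-seeding to replicon-bearing ET cells (luc-ubi-neo/NS3-5B, adaptive mutations). Firefly luciferase signal was measured after 48-72 h.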
By inhibition is commonly meant the drop in the measured response relative to a control, in per cent. A high value points to a response far below the control. The molecule `O=C(c1nc2c(C(F)(F)F)cc(-c3ccoc3)cn2c1Cl)N1CCC(c2ccccc2F)C1` (stereo not drawn) [Compound 333, (3-Chloro-6-furan-3-yl-8-trifluoromethyl-imidazo[1,2-a]pyridin-2-yl)-[3-(2-fluoro-phenyl)-pyrrolidin-1-yl]-methanone] gave an inhibition at 10 µM of 98.9%. `O=C(c1nc2c(C(F)(F)F)cc(-c3ccoc3)cn2c1Cl)N1CCC(c2cccc(F)c2)C1` (stereo not drawn) [Compound 334, (3-Chloro-6-furan-3-yl-8-trifluoromethyl-imidazo[1,2-a]pyridin-2-yl)-[3-(3-fluoro-phenyl)-pyrrolidin-1-yl]-methanone] came in with an inhibition at 10 µM of 96.1%. Regarding `COc1ccc(C2CCN(C(=O)c3nc4c(C(F)(F)F)cc(-c5ccoc5)cn4c3Cl)C2)cc1` (stereo not drawn) [Compound 335, (3-Chloro-6-furan-3-yl-8-trifluoromethyl-imidazo[1,2-a]pyridin-2-yl)-[3-(4-methoxy-phenyl)-pyrrolidin-1-yl]-methanone], testing at 10 µM gave an inhibition of 76.3%. Molecule `O=C(c1nc2c(C(F)(F)F)cc(-c3ccoc3)cn2c1Cl)N1CCC(c2ccc(C(F)(F)F)cc2)C1` (stereo not drawn) [Compound 336, (3-chloro-6-furan-3-yl-8-trifluoromethyl-imidazo[1,2-a]pyridin-2-yl)-[3-(4-trifluoromethyl-phenyl)-pyrrolidin-1-yl]-methanone] had an inhibition at 10 µM of 73.2%.

For `O=C(c1cn2cc(-c3ccoc3)cc(C(F)(F)F)c2n1)N1CCC(c2ccccc2F)C1` (stereo not drawn) [Compound 337, [3-(2-Fluoro-phenyl)-pyrrolidin-1-yl]-(6-furan-3-yl-8-trifluoromethyl-imidazo[1,2-a]pyridin-2-yl)-methanone], the inhibition at 10 µM came to 97.7%. As for `COC(=O)c1ccccc1C1CCN(C(=O)c2nc3c(C(F)(F)F)cc(-c4ccoc4)cn3c2Cl)C1` (stereo not drawn) [Compound 338, 2-[1-(3-Chloro-6-furan-3-yl-8-trifluoromethyl-imidazo[1,2-a]pyridine-2-carbonyl)-pyrrolidin-3-yl]-benzoic Acid Methyl Ester], 10 µM produced 49.3% inhibition. For the molecule `COc1ccc(C2CCN(C(=O)c3nc4c(C(F)(F)F)cc(-c5ccoc5)cn4c3Cl)C2)cc1OC` (stereo not drawn) [Compound 339, (3-Chloro-6-furan-3-yl-8-trifluoromethyl-imidazo[1,2-a]pyridin-2-yl)-[3-(3,4-dimethoxy-phenyl)-pyrrolidin-1-yl]-methanone], testing at 10 µM gave an inhibition of 63%. In the case of `O=C(c1nc2c(C(F)(F)F)cc(-c3ccoc3)cn2c1Cl)N1CCC(N2CCCCC2)C1` (stereo not drawn) [Compound 340, (3-Chloro-6-furan-3-yl-8-trifluoromethyl-imidazo[1,2-a]pyridin-2-yl)-(3-piperidin-1-yl-pyrrolidin-1-yl)-methanone] it was 65.6%; in that of `O=C(c1nc2c(C(F)(F)F)cc(-c3ccoc3)cn2c1Cl)N1CCC(c2ccccc2Cl)C1` (stereo not drawn) [Compound 341, (3-Chloro-6-furan-3-yl-8-trifluoromethyl-imidazo[1,2-a]pyridin-2-yl)-[3-(2-chloro-phenyl)-pyrrolidin-1-yl]-methanone], 83.6%.

The molecule `O=C(NCc1cccs1)c1cc2cc(-c3cn[nH]c3)cc(Cl)c2[nH]1` [Compound 347, 7-Chloro-5-(1H-pyrazol-4-yl)-1H-indole-2-carboxylic Acid (thiophen-2-ylmethyl)-amide] gave an inhibition at 10 µM of 0.1%.

`O=C(NCc1cccs1)c1cc2cc(-c3ccoc3)cc(Cl)c2[nH]1` [Compound 348, 7-Chloro-5-furan-3-yl-1H-indole-2-carboxylic Acid (thiophen-2-ylmethyl)-amide] showed an inhibition at 10 µM of 0.1%. As for `O=C(c1nc2c(C(F)(F)F)cc(-c3ccoc3)cc2[nH]1)N1CCC(c2ccc(F)cc2)C1` (stereo not drawn) [Compound 351, [3-(4-Fluoro-phenyl)-pyrrolidin-1-yl]-(6-furan-3-yl-4-trifluoromethyl-1H-benzoimidazol-2-yl)-methanone], the figure is 52.1%.
